Laboratory results published in patent US11299478B2, “2-cyanopyrimidin-4-yl carbamate or urea derivative or salt thereof, and pharmaceutical composition including same” (HANLIM PHARMACEUTICAL CO., LTD., priority 2018, dated 2022).

Legend:
Format in all cases: biochemical
cathepsin K = biological target: T1, cathepsin K (Homo sapiens, UniProt P43235); experiment: Inhibitory activity assay against cathepsin K (enzyme assay); conditions: Z-Phe-Arg-AMC 10 μM, enzyme 1 nM, pH 5.5, 30 minutes
T1 sequence (P43235 115-329): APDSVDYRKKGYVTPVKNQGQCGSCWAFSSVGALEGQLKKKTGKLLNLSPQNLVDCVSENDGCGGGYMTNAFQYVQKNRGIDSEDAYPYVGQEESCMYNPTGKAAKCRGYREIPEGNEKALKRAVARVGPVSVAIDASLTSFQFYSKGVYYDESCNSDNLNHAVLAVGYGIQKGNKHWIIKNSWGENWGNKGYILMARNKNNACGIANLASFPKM
Summary of the method: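 IC50 by 4-parameter logistic fit of fluorescence (ex 355 nm, em 460 nm) after 30 min reaction. Compound tested at 10 final concentrations from 10.0 μM down to 0.000508 μM against 1 nM enzyme and 10 μM Z-Phe-Arg-AMC, in MES buffer pH 5.5 with DTT, EDTA, Triton X-100 and 10% DMSO.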

cathepsin S = cathepsin S (Homo sapiens, UniProt P25774); experiment: Inhibitory activity assay against cathepsin S (enzyme assay); conditions: Z-Phe-Arg-AMC 70 μM, enzyme 3 nM, pH 6.5, 45 minutes
Chain of cathepsin S (P25774 115-331, species assumed): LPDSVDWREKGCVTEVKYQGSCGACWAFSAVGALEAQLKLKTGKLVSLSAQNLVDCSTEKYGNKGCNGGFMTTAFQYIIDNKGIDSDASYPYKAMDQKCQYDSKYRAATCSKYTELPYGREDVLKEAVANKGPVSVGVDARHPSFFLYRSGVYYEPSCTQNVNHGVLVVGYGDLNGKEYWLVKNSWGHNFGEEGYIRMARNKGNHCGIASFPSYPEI
Summary of the method: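 Ten-point compound titration (10.0 to 0.000508 μM final) reacted 45 min with 3 nM cathepsin S and 70 μM Z-Phe-Arg-AMC in MES 50 mM pH 6.5, DTT 2.5 mM, EDTA 1.0 mM, BSA 0.001%, DMSO 10%. AMC release read at 340/460 nm; IC50 from four-parameter logistic fit.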

cathepsin L = cathepsin L (Homo sapiens, UniProt P07711); experiment: Inhibitory activity assay against cathepsin L (enzyme assay); conditions: Z-Phe-Arg-AMC 2 μM, enzyme 3 nM, pH 5.5, 30 minutes
Chain of cathepsin L (P07711 114-333, species assumed): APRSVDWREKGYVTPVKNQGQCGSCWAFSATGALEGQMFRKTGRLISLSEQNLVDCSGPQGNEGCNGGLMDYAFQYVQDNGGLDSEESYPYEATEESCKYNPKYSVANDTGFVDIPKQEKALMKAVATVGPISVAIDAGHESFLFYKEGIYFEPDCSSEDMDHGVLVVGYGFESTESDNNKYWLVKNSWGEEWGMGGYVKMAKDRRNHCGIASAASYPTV
Summary of the method: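 IC50s came from 4-parameter logistic fits of ten concentrations (10.0 μM down to 0.000508 μM). Reaction: 30 min, 3 nM enzyme, 2 μM Z-Phe-Arg-AMC, pH 5.5 MES buffer containing DTT, EDTA, Polysorbate 20 and 10% DMSO; fluorescence read 340/460 nm.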

cathepsin B = cathepsin B (Homo sapiens, UniProt P07858); experiment: Inhibitory activity assay against cathepsin B (enzyme assay); conditions: Z-Arg-Arg-AMC 40 μM, enzyme 1 nM, pH 6.0, 90 minutes
Summary of the method: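 Reaction run 90 min in MES buffer pH 6.0 containing DTT, EDTA, Polysorbate 20 and 10% DMSO, using 40 μM fluorogenic Z-Arg-Arg-AMC and 1 nM cathepsin B. Ten compound levels from 10.0 μM; AMC fluorescence at ex 340/em 460 nm fitted to a 4-parameter logistic for IC50.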

Compound | IC50 (cathepsin K) [nM] | IC50 (cathepsin S) [nM] | IC50 (cathepsin L) [nM] | IC50 (cathepsin B) [nM]
N#Cc1nccc(C2(NC(=O)Nc3ccc(-c4ccc(CC(=O)O)cc4)cc3)CCCCC2)n1 [Example 161, 2-(4′-(3-(1-(2-cyanopyrimidin-4-yl)cyclohexyl)ureido)-[1,1′-biphenyl]-4-yl)acetic acid] | 61.1 | > 10000 | > 10000 | > 10000
CS(=O)(=O)c1ccc(-c2ccc(NC(=O)NC3(c4ccnc(C#N)n4)CCCCC3)cc2C(F)(F)F)cc1 [Example 162, 1-(1-(2-cyanopyrimidin-4-yl)cyclohexyl)-3-(4′-(methylsulfonyl)-2-(trifluoromethyl)-[1,1′-biphenyl]-4-yl)urea] | 8.3 | 3950 | 6520 | > 10000
CC(C)N1CCN(c2ccc(-c3ccc(NC(=O)NC4(c5ccnc(C#N)n5)CCCCC4)cc3F)cc2)CC1 [Example 166, 1-(1-(2-cyanopyrimidin-4-yl)cyclohexyl)-3-(2-fluoro-4′-(4-isopropylpiperazin-1-yl)-[1,1′-biphenyl]-4-yl)urea] | 0.4 | 5940 | 3440 | 2410
N#Cc1nccc(C2(NC(=O)Nc3ccc(-c4ccc(C5CCN(C6CC6)CC5)cc4)c(F)c3)CCCCC2)n1 [Example 168, 1-(1-(2-cyanopyrimidin-4-yl)cyclohexyl)-3-(4′-(1-cyclopropylpiperidin-4-yl)-2-fluoro-[1,1′-biphenyl]-4-yl)urea] | 0.3 | > 10000 | > 10000 | > 10000
N#Cc1nccc(C2(NC(=O)Nc3ccc(-c4ccc(S(=O)(=O)C(F)(F)F)cc4)cc3)CCCCC2)n1 [Example 169, 1-(1-(2-cyanopyrimidin-4-yl)cyclohexyl)-3-(4′-((trifluoromethyl)sulfonyl)-[1,1′-biphenyl]-4-yl)urea] | 74 | 3600 | > 10000 | > 10000
CS(=O)(=O)c1ccc(-c2ccc(NC(=O)NC3(c4ccnc(C#N)n4)CCCCC3)cc2)cc1C(F)(F)F [Example 171, 1-(1-(2-cyanopyrimidin-4-yl)cyclohexyl)-3-(4′-(methylsulfonyl)-3′-(trifluoromethyl)-[1,1′-biphenyl]-4-yl)urea] | 24 | 2190 | > 10000 | > 10000
N#Cc1nccc(C2(NC(=O)Nc3ccc(-c4ccccc4C(F)(F)F)cc3)CCCCC2)n1 [Example 172, 1-(1-(2-cyanopyrimidin-4-yl)cyclohexyl)-3-(2′-(trifluoromethyl)-[1,1′-biphenyl]-4-yl)urea] | 108 | 8020 | > 10000 | > 10000
N#Cc1nccc(C2(NC(=O)Nc3ccc(-c4ccc(S(N)(=O)=O)cc4)cc3)CCCCC2)n1 [Example 173, 4′-(3-(1-(2-cyanopyrimidin-4-yl)cyclohexyl)ureido)-[1,1′-biphenyl]-4-sulfonamide] | 13.8 | > 10000 | > 10000 | > 10000
CS(=O)(=O)Nc1ccc(-c2ccc(NC(=O)NC3(c4ccnc(C#N)n4)CCCCC3)cc2)cc1 [Example 174, N-(4′-(3-(1-(2-cyanopyrimidin-4-yl)cyclohexyl)ureido)-[1,1′-biphenyl]-4-yl)methanesulfonamide] | 11.7 | > 10000 | > 10000 | > 10000
N#Cc1nccc(C2(NC(=O)Nc3ccc(-c4ccccc4C(F)(F)F)c(C(F)(F)F)c3)CCCCC2)n1 [Example 176, 1-(2,2′-bis(trifluoromethyl)-[1,1′-biphenyl]-4-yl)-3-(1-(2-cyanopyrimidin-4-yl)cyclohexyl)urea] | 122 | 5840 | > 10000 | > 10000
N#Cc1nccc(C2(NC(=O)Nc3ccc(-c4ccc(S(=O)(=O)C(F)(F)F)cc4)c(C(F)(F)F)c3)CCCCC2)n1 [Example 177, 1-(1-(2-cyanopyrimidin-4-yl)cyclohexyl)-3-(2-(trifluoromethyl)-4′-((trifluoromethyl)sulfonyl)-[1,1′-biphenyl]-4-yl)urea] | 205 | 6140 | > 10000 | > 10000
CS(=O)(=O)c1ccc(-c2ccc(NC(=O)NC3(c4ccnc(C#N)n4)CCCCC3)cc2C(F)(F)F)cc1C(F)(F)F [Example 178, 1-(1-(2-cyanopyrimidin-4-yl)cyclohexyl)-3-(4′-(methylsulfonyl)-2,3′-bis(trifluoromethyl)-[1,1′-biphenyl]-4-yl)urea] | 21.2 | 5600 | > 10000 | > 10000
N#Cc1nccc(C2(NC(=O)Nc3ccc(-c4ccc(S(N)(=O)=O)cc4)c(C(F)(F)F)c3)CCCCC2)n1 [Example 179, 4′-(3-(1-(2-cyanopyrimidin-4-yl)cyclohexyl)ureido)-2′-(trifluoromethyl)-[1,1′-biphenyl]-4-sulfonamide] | 11.5 | 2760 | 7530 | > 10000

Second part, the compound after the results:

IC50 (cathepsin K) [nM] | IC50 (cathepsin S) [nM] | IC50 (cathepsin L) [nM] | IC50 (cathepsin B) [nM] | Compound
25.2 | 3370 | > 10000 | > 10000 | N#Cc1nccc(C2(NC(=O)Nc3ccc(-c4ccc(C(=O)O)cc4)c(C(F)(F)F)c3)CCCCC2)n1 [Example 163, 4′-(3-(1-(2-cyanopyrimidin-4-yl)cyclohexyl)ureido)-2′-(trifluoromethyl)-[1,1′-biphenyl]-4-carboxylic acid]
6.2 | 4640 | > 10000 | > 10000 | CC(=O)Nc1ccc(-c2ccc(NC(=O)NC3(c4ccnc(C#N)n4)CCCCC3)cc2F)cc1 [Example 164, N-(4′-(3-(1-(2-cyanopyrimidin-4-yl)cyclohexyl)ureido)-2′-fluoro-[1,1′-biphenyl]-4-yl)acetamide]
5.7 | > 10000 | > 10000 | > 10000 | CC(=O)NCc1ccc(-c2ccc(NC(=O)NC3(c4ccnc(C#N)n4)CCCCC3)cc2F)cc1 [Example 165, N-((4′-(3-(1-(2-cyanopyrimidin-4-yl)cyclohexyl)ureido)-2′-fluoro-[1,1′-biphenyl]-4-yl)methyl)acetamide]
8 | 1110 | > 10000 | > 10000 | CS(=O)(=O)c1ccc(-c2ccc(NC(=O)NC3(c4ccnc(C#N)n4)CCCCC3)cc2F)cc1 [Example 167, 1-(1-(2-cyanopyrimidin-4-yl)cyclohexyl)-3-(2-fluoro-4′-(methylsulfonyl)-[1,1′-biphenyl]-4-yl)urea]
39.5 | > 10000 | > 10000 | > 10000 | CS(=O)(=O)c1ccc(-c2ccc(NC(=O)NC3(c4ccnc(C#N)n4)CCCCC3)cc2)cc1F [Example 170, 1-(1-(2-cyanopyrimidin-4-yl)cyclohexyl)-3-(3′-fluoro-4′-(methylsulfonyl)-[1,1′-biphenyl]-4-yl)urea]
10.9 | > 10000 | > 10000 | > 10000 | CS(=O)(=O)Nc1ccc(-c2ccc(NC(=O)NC3(c4ccnc(C#N)n4)CCCCC3)cc2C(F)(F)F)cc1 [Example 180, N-(4′-(3-(1-(2-cyanopyrimidin-4-yl)cyclohexyl)ureido)-2′-(trifluoromethyl)-[1,1′-biphenyl]-4-yl)methanesulfonamide]
